We go through eight molecules from patent US12358859B2, “Series of compounds for treatment of skin diseases and other conditions” (Unigen, Inc., priority 2018, dated 2025).

What all share (assay type): cell-based
In series [1] the test system is murine melanoma cells B16-F1. Put plainly: Melanin production by murine melanoma cells B16-F1. The note with it: Mus musculus, B16-F1, 1 nM α-MSH, 48 hours. How it is done:
Selected compounds were then tested for the ability to suppress melanin production by the murine melanoma cells B16-F1 as detailed below.
Murine melanoma cells B16-F1 were purchased from the ATCC (Cat #CRL-6323). Cell Titer96 AqueousOne Solution was purchased from Promega (Cat #G3582). 0.2 μm pore size, low protein binding filters were purchased from PALL Life Sciences. (Cat #PN4454).
Alpha-MSH was purchased from the Sigma Aldrich (Cat #M4135-1MG). All tissue culture reagents were purchased from VWR (phenol-red-free DMEM, cat #12001-630, L-glutamine, cat #12001-698) and Fisher Scientific (Trypsin-EDTA, cat #25-200-056).
The B16-F1 cells were maintained in cell growth media (DMEM/High Glucose supplemented with glutamine, 10% fetal bovine serum, 50 units/ml penicillin, and 50 units/mL of streptomycin) at 37° C. in a humidified atmosphere of 95% air and 5% CO2.
(§1) All test compounds were initially dissolved in 100% DMSO at a concentration of 400 mM. Then, 6 μL of 400 mM test compounds were added to 1.2 mL of the cell growth media giving a final concentration of 2 mM for the test compound and concentration of 0.5% for DMSO. The compounds were centrifuged for 1 h at 20,000×g. Supernatants (1 mL) were collected and filtered through sterile 0.2 μm filters. The compounds were serially diluted in two-fold increments in the sterile cell growth media supplemented with 0.5% DMSO, thus keeping the concentration of DMSO constant for all samples. These serially diluted compounds were subsequently used as two-fold concentrated stock solutions in the melanin production and cell viability assays. Equal volumes of 2× compounds were mixed with media containing 2 nM α-MSH to give a final concentration of 1 nM α-MSH, 0.5% DMSO, and 1× concentration of test compounds.
B16-F1 cells were seeded into the wells of clear-bottom 24-well plates at 50,000 cells per well, in 0.5 mL of cell growth media. On the following day, 0.5 mL of freshly prepared test compounds containing α-MSH were added to the wells. The cells were maintained at 37° C. in a humidified atmosphere of 95% air and 5% CO2 for 48 hours. At the end of the incubation period, melanin-containing conditioned media was removed from the cells and transferred to another plate. To measure melanin content the light absorbance of conditioned media was taken at 492 nm using a TECAN Genios plate reader.
(§2) More than 90% percent of the melanin produced by cultured melanoma cells is found in extra-cellular media. Therefore, at the end of the experiment melanin-containing media was collected and relative amounts of melanin were determined by absorption at 492 nm. Viability of cells was determined by a commonly used colorimetric procedure that is based on conversion of the tetrazolium compounds to colored formazan products (using Promega's CellTiter96 AqueousOne assay). Dehydrogenase enzymes in metabolically active cells accomplish this conversion, and the amount of formazan product is directly proportional to the number of living cells in culture. Mean (n=2) absorption of wells containing no cells was subtracted as blanks. The results were computed as percent of wells that contained the cells but no test compounds.

In series [2] the test system is murine melanoma cells B16-F1. As to the kind of experiment: Cell viability, tetrazolium reduction assay. How it is done:
as §1
Viability of cells was measured using standard tetrazolium reduction assay based on redox potential of live cells. Cells were seeded in a clear-bottom 96-well plate in RPMI 1640 media with Glutamax (Fisher Scientific, cat #61870036) at a density of 5,000 cells/well. Cells were treated with test compounds dissolved in 100 μL RPMI 1640 media and incubated for 48 hours at 37° C. in a humidified atmosphere of 95% air and 5% CO2.
After incubation, 20 μL of Aqueous One Solution were added to each well and the plate was returned to the incubator for 30 minutes. Conversion of tetrazolium was monitored by measuring absorbance of cell wells at 492 nm using a TECAN Genios plate reader.
as §2

Series [3] has as its system Propionibacterium acnes (ATCC11827). As to the kind of experiment: P-acne MIC/MBC test. The note with it: Cutibacterium acnes; for MIC: ATCC11827, 24 h, lowest level that inhibits growth, turbidity, 1 day, read-out: MIC; for MBC: ATCC11827, lowest concentration required to kill the bacterium, read-out: MBC. On the procedure:
The anti-microbial activity of the tested compounds were evaluated using published methods (Modugno e. al. (1994) Antimicrobial agents and Chemotherapy 38: 2362-2368; […] et. al. (1973) Antimicrobial agents and Chemotherapy 3: 40-48. Propionibacterium acnes (ATCC11827) was cultured for 20 hours at 37° C. in Reinforced Clostridal medium. The test article and positive control were dissolved in 1% DMSO with an incubation volume of 1 mL. The time of assessment was 1 day. Measurement of turbidity was used as the method of quantification. The compounds were tested in duplicate at concentrations of 250 ug/mL, 125 ug/mL, 62 ug/mL, 31 ug/mL, 16 ug/mL, 8 ug/mL, 4 ug/mL, 2 ug/mL relative to positive control ampicillin at 0.1 ug/mL.

Series [4] deals with reconstructed skin (keratinocytes and melanocytes). Put plainly: Reconstructed human skin model (Melanoderm). The note with it: for toxicity on reconstructed skin: at 0.05%. On the procedure:
The skin whitening effects of test compounds were studied using a reconstructed skin model, Melanoderm™ provided by MatTek Corp. (Ashland, Mass.) according to the manufacturer's specifications. Briefly, normal human epidermal keratinocytes and normal human melanocytes derived from dark skin donors were co-cultured on a surface of collagen-coated membrane to form multi-layered, highly differentiated skin tissue (MEL-300-B). The tissues were maintained in the CO2, incubator at 37° C. The apical surfaces of the reconstructed skin (9 mm in diameter) were exposed to air whereas the bottom surfaces remained in contact with 5 mL of maintenance medium, containing skin differentiating factors (EPI-100-NNM-113). Test compounds were formulated in 80% propylene glycol as follows: 10 mg of each test compound was dissolved in DMSO and diluted with 80% propylene glycol (1,2-propanediol, Sigma-Aldrich) to stock concentrations. The compounds were then sterilized by passing through 0.2 um filter and diluted in sterile water/propylene glycol to final test concentrations in 0.5% DMSO, 80% propylene glycol. In addition, the following controls were used: 80% propylene glycol with 0.5% DMSO, and 1% kojic acid in 80% propylene glycol.
‘Test compounds were applied to the apical surface of the tissues as follows: 25 μl of each test compound, 25 μl of 80% propylene glycol (vehicle control), and 25 μl of 1% kojic acid (positive control). The samples were reapplied every other day for 14 days. All the samples were tested in duplicate. At the end of the experiment microscopic images were taken.
The potential skin-whitening properties of test compounds were explored in a reconstructed skin model. The model consists of normal, human-derived epidermal keratinocytes and melanocytes, which have been co-cultured to form a multilayered, highly differentiated human epidermis. In this study the melanocytes were obtained from a highly pigmented donor.
Different concentrations of test compounds, 80% propylene glycol (the vehicle control), or 1% kojic acid (positive control) were repeatedly applied topically on the surface of the reconstructed skin for 15 days. […] Photographs of skin specimen taken after 15 days of the experiment show significant dose-dependent whitening effects on melanocytes, which appear on photographs as dark dendritic cells.

The mark [5] stands for this setting: Tables 1-3, read-out: MELANIN PRODUCTION
The mark [6] stands for this setting: FIGS. 2-8, read-out: IC50, inhibition in the production of melanin.

For orientation: MIC means the lowest concentration found to suppress growth. The MBC is the lowest tested concentration that kills the bacteria rather than only halting them.

Read-outs that look alike come from different tables or passages of the source.

With `CC(C)=CCCC(C)C/C=C/c1cc(OCC(=O)O)cc(OCC(=O)O)c1` (stereo not drawn) [Compound 17, (E)-2,2′-(5-(4,8-dimethylnona-1,7-dienyl)-1,3-phenylene)bis(oxy)diacetic acid], in series [1] (setting [5]), the IC50 came out at 72 µM. Further, in series [2] (mouse, 48 h), the “CELL VIABILITY” value worked out at 127 µM. Moreover, in series [3], the MIC was below 3.9 µg/mL and the MBC is below 3.9 µg/mL.
For `CC(C)=CCC/C(C)=C/c1ccc(O)cc1O` [Compound 3, (E/Z)-4-(2,6-dimethylhepta-1,5-dienyl)benzene-1,3-diol], the IC50 in series [1] (setting [5]) worked out at 164 µM. In series [2] (mouse, 48 h), the “CELL VIABILITY” value stood at 172 µM. Moreover, in series [3], the MIC is below 3.9 µg/mL and the minimum bactericidal concentration (MBC) was below 3.9 µg/mL.
Consider `CC(C)=CCCC(C)/C=C/c1ccccn1` (stereo not drawn) [Compound 13, (E)-2-(3,7-dimethylocta-1,6-dienyl) pyridine], for which the IC50 in series [1] (setting [5]) is 149 µM. For the same molecule, the “CELL VIABILITY” value in series [2] (mouse, 48 h) was found to be 650 µM.
Consider `CC(C)=CCCC(C)/C=C/c1cccnc1` (stereo not drawn) [Compound 12, (E)-3-(3,7-dimethylocta-1,6-dienyl) pyridine], for which the IC50 in series [1] (setting [6]) and in series [1] (setting [5]) was 74 µM throughout. The “CELL VIABILITY” value in series [2] (48 hours, Tables 1-3) turned out to be 385 µM. For the same molecule, in series [2] (mouse, 48 h), the “LD50, cell viability” value was 385 µM. The “toxicity on reconstructed skin” value in series [4] is listed as “some toxicity”. For the same molecule, in series [4] (topical, photographs after 14 days), the “whitening effects on melanocytes” value is “significant whitening effects”. Besides, the MIC in series [3] is below 3.9 µg/mL. The MBC in series [3] is below 3.9 µg/mL.
In the case of `CC(C)=CCCC(C)/C=C/c1ccc2cc(O)ccc2c1` (stereo not drawn) [Compound 8, (E)-6-(3,7-Dimethylocta-1,6-dienyl) naphthalene-2-ol], the IC50 in series [1] (setting [6]) was 22 µM. Moreover, the IC50 in series [1] (setting [5]) turned out to be 22 µM. Also, in series [2] (mouse, 48 h), the “CELL VIABILITY” value amounted to 68 µM and the “LD50, cell viability” value is 68 µM. Also, in series [4], the “toxicity on reconstructed skin” value was “some toxicity”. Further, in series [3], the minimal inhibitory concentration (MIC) was below 3.9 µg/mL and the MBC is below 3.9 µg/mL.
Take `CC(C)=CCCC(C)=Cc1cccc(O)c1` (mixture of isomers) [Compound 2, (E/Z)-3-(2,6-dimethylhepta-1,5-dienyl)phenol]: the IC50 in series [1] (setting [5]) turned out to be 82 µM. Moreover, the “CELL VIABILITY” value in series [2] (mouse, 48 h) was 66 µM.
Take `CC(C)=CCCC(C)C/C=C/c1cc(O)cc(O)c1` (stereo not drawn) [Compound 16, (E)-5-(4,8-dimethylnona-1,7-dienyl) benzene-1,3-diol]: the IC50 in series [1] (setting [5]) was determined as 164 µM. The “CELL VIABILITY” value in series [2] (mouse, 48 h) was 172 µM. For the same molecule, in series [3], the minimal inhibitory concentration (MIC) is below 3.9 µg/mL and the MBC was below 3.9 µg/mL.
Take `COc1ccc(/C=C/C(C)CCC=C(C)C)cn1` (stereo not drawn) [Compound 14, (E)-5-(3,7-dimethylocta-1,6-dienyl)-2-methoxypyridine]: the IC50 in series [1] (setting [5]) was determined as 147 µM. Besides, the “CELL VIABILITY” value in series [2] (mouse, 48 h) came out at 369 µM.
